IC50 data for 34 compounds are collected here from patent US20110306597A1, “Nicotinamide Derivatives” (priority 2008, published 2011).

This test deals with human recombinant H-PGDS (Homo sapiens, UniProt O60760). As to the kind of experiment: Fluorescence Intensity h-PGDS TBA Enzyme Assay. It is filed as biochemical. The note with it: 1:175,000 human recombinant H-PGDS, highest inhibitor concentration typically 1 μM. The procedure: Fluorescence Intensity h-PGDSTBA Enzyme Assay
Chain of human recombinant H-PGDS (O60760 whole entry): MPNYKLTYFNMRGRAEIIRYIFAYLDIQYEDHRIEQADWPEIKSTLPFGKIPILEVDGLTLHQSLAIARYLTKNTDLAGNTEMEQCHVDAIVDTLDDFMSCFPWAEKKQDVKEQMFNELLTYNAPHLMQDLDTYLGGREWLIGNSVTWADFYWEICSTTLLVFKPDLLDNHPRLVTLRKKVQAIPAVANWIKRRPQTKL
Prostaglandin D Synthase (PGDS) converts the substrate prostaglandin H2 (PGH2) to prostaglandin D2. The depletion of PGH2 was measured via an Fe(II) reduction of the remaining PGH2 to malondialdehyde (MDA) and 12-HHT. The enzyme assay is based on the quantitative formation of a fluorescent complex from the non-fluorescent compounds MDA and 2-thiobarbituric acid (TBA), substantially as described in U.S. patent application publication US-2004/152148 by Lombardt.
The enzyme assay (31 μls) contained 100 mM Tris base pH 8.0, 100 μM MgCl2, 0.1 mg/ml IgG Rabbit serum, 5.0 μM PGH2 (Cayman; ethanol solution, #17020), 2.5 mM L-Glutathione (Sigma; reduced form #G4251), 1:175,000 human recombinant H-PGDS (from 1 mg/ml), 0.5% DMSO and inhibitor (varying concentration). Three μls of diluted inhibitor (dissolved in DMSO) was plated into a 384-well assay plate followed by a 25 μl addition of an enzyme solution containing h-PGDS, Tris, MgCl2, IgG and L-Glutathione. After preincubation of inhibitor and enzyme solution for 10 minutes at room temperature, the reaction was initiated with a 3 μl addition of substrate solution in 10 mM HCl. The reaction was terminated after 42 second by the addition (3 μl) of stop buffer containing FeCl2 and citric acid. After addition of 45.5 μls of TBA plates were heated for one hour in a 70 C oven. Plates were cooled at room temperature overnight and read on a plate reader the next day with excitation @ 530 nm and emission @ 565 nm.
IC50's of inhibitors were calculated with a 4-parameter fit using 11 inhibitor concentrations in duplicate with 3-fold serial dilutions. Controls on each plate included no inhibitor (zero % effect) and an inhibitor 10-fold in excess of its' IC50 (100% effect). The highest inhibitor concentration tested was typically 1 μM.
In general, IC50 refers to the concentration that gives 50% inhibition. With `COc1cccc(-c2ccc(C(=O)NCc3ccc(Cl)c(Cl)c3)cn2)c1` [Example 483, N-(3,4-Dichlorobenzyl)-6-(3-methoxyphenyl) nicotinamide], the IC50 was 151 nM. In the case of `CCOC(=O)C(CNC(=O)c1ccc(-c2ccccc2)nc1)C1CCCC1` (stereo not shown) [Example 393, Ethyl 2-cyclopentyl-3-{[(6-phenylpyridin-3-yl)carbonyl]amino}propanoate] it was 1.96 nM; in that of `COC(=O)[C@H](Cc1ccc(Cl)cc1)NC(=O)c1ccc(-c2ccccc2)nc1` [Example 369, Methyl 4-chloro-N-[(6-phenylpyridin-3-yl)carbonyl]phenylalaninate], 9.3 nM. For `O=C(NCc1ccccc1)c1ccc(-c2ccc(F)cc2)nc1` [Example 499, N-Benzyl-6-(4-fluorophenyl)nicotinamide] the value was 321 nM. Turning to `O=C(NCc1ccc(Cl)c(Cl)c1)c1ccc(-c2cccc(F)c2)nc1` [Example 154, N-(3,4-Dichlorobenzyl)-6-(3-fluorophenyl)nicotinamide], the IC50 amounted to 43.7 nM. Turning to `CCOC(=O)CC(NC(=O)c1ccc(-c2ccc(F)cc2)nc1)c1ccc(OC)cc1` (stereo not shown) [Example 506, Ethyl 3-({[6-(4-fluorophenyl)pyridin-3-yl]carbonyl}amino)-3-(4-methoxyphenyl)propanoate], the IC50 is not below 1000 nM. For the compound `Cc1ccccc1CNC(=O)c1ccc(-c2ccccc2)nc1` [Example 151, N-(2-Methylbenzyl)-6-phenylnicotinamide], the IC50 was determined as 1.88 nM. For `CC(=O)N1CCC(CNC(=O)c2ccc(-c3ccccc3)nc2)CC1` [Example 387, N-[(1-Acetylpiperidin-4-yl)methyl]-6-phenylnicotinamide] the value was 20.9 nM; for `Cc1cccc(-c2ccc(C(=O)NC3CCOCC3)cn2)c1` [Example 252, 6-(3-Methylphenyl)-N-(tetrahydro-2H-pyran-4-yl)nicotinamide], 12.9 nM; for `COC(=O)CNC(=O)c1ccc(-c2cccc(OC)c2)nc1` [Example 283, Methyl N-{[6-(3-methoxyphenyl)pyridin-3-yl]carbonyl}glycinate], 826 nM. In the case of `O=C(NCCC1CCCCO1)c1ccc(-c2ccc(F)cc2)nc1` (stereo not shown) [Example 270, 6-(4-Fluorophenyl)-N-[2-(tetrahydro-2H-pyran-2-yl)ethyl]nicotinamide] it was 216 nM; in that of `O=C(NC1CCCCNC1=O)c1ccc(-c2cccc(F)c2)nc1` (stereo not shown) [Example 136, 6-(3-Fluorophenyl)-N-(2-oxoazepan-3-yl)nicotinamide], 3.51 nM; in that of `COc1cccc(-c2ccc(C(=O)NC(C)c3ccccc3)cn2)c1` (stereo not shown) [Example 339, 6-(3-Methoxyphenyl)-N-(1-phenylethyl)nicotinamide], 266 nM. In the case of `O=C(NCc1cn2ncsc2n1)c1ccc(-c2cccc(F)c2)nc1` [Example 182, 6-(3-Fluorophenyl)-N-(imidazo[2,1-b][1,3,4]thiadiazol-6-ylmethyl)nicotinamide] it was 79.2 nM; in that of `COCCCNC(=O)c1ccc(-c2cccc(F)c2)nc1` [Example 442, 6-(3-Fluorophenyl)-N-(3-methoxypropyl)nicotinamide], 41.3 nM.

Regarding `COc1cccc(-c2ccc(C(=O)NCCC3CCN(C)CC3)cn2)c1` [Example 487, 6-(3-Methoxyphenyl)-N-[2-(1-methylpiperidin-4-yl)ethyl]nicotinamide], the half-inhibitory concentration (IC50) was not below 1000 nM. With `Cc1ncsc1CCCNC(=O)c1ccc(-c2cccc(F)c2)nc1` [Example 85, 6-(3-Fluorophenyl)-N-[3-(4-methyl-1,3-thiazol-5-yl)propyl]nicotinamide], the IC50 came out at 4.88 nM.

On to `Cc1cc(C)nc(CNC(=O)c2ccc(-c3cccc(F)c3)nc2)n1` [Example 95, N-[(4,6-Dimethylpyrimidin-2-yl)methyl]-6-(3-fluorophenyl)nicotinamide], for which the IC50 stood at 95.7 nM. For `Cc1cccc(NC(=O)c2ccc(-c3ccccc3)nc2)c1C` [Example 527, N-(2,3-Dimethylphenyl)-6-phenylnicotinamide] the value was 10.3 nM. Take `CCOC(=O)CC[C@H](NC(=O)c1ccc(-c2ccccc2)nc1)C(=O)OCC` [Example 396, Diethyl N-[(6-phenylpyridin-3-yl)carbonyl]-L-glutamate]: the IC50 worked out at 3 nM.

Regarding `COc1cccc(CNC(=O)c2ccc(-c3cccc(F)c3)nc2)c1OC` [Example 33, N-(2,3-Dimethoxybenzyl)-6-(3-fluorophenyl)nicotinamide], the concentration for half-maximal inhibition (IC50) amounted to 2.72 nM. In the case of `COc1cccc(-c2ccc(C(=O)Nc3ccccc3)cn2)c1` [Example 308, 6-(3-Methoxyphenyl)-N-phenylnicotinamide] it was 54 nM; in that of `CCOC(=O)CCCNC(=O)c1ccc(-c2cccc(F)c2)nc1` [Example 192, Ethyl 4-({[6-(3-fluorophenyl)pyridin-3-yl]carbonyl}amino)butanoate], 9.04 nM.

On to `COc1cccn(CCNC(=O)c2ccc(-c3cccc(F)c3)nc2)c1=O` [Example 48, 6-(3-Fluorophenyl)-N-[2-(3-methoxy-2-oxopyridin-1(2H)-yl)ethyl]nicotinamide], for which the 50% inhibitory concentration (IC50) was found to be 10.7 nM. As for `CCOC(=O)CC(NC(=O)c1ccc(-c2cccc(OC)c2)nc1)c1ccccc1Cl` (stereo not shown) [Example 276, Ethyl 3-(2-chlorophenyl)-3-({[6-(3-methoxyphenyl)pyridin-3-yl]carbonyl}amino) propanoate], the IC50 worked out at 252 nM.

For `O=C(NCc1cc(F)cc2c1OCOC2)c1ccc(-c2cccc(F)c2)nc1` [Example 184, N-[(6-Fluoro-4H-1,3-benzodioxin-8-yl)methyl]-6-(3-fluorophenyl)nicotinamide], the IC50 is 49.5 nM. For the compound `O=C(NCCN1CCCCC1=O)c1ccc(-c2ccccc2)nc1` [Example 373, N-[2-(2-Oxopiperidin-1-yl)ethyl]-6-phenylnicotinamide], the IC50 was 39.7 nM.

`NS(=O)(=O)c1ccc(CNC(=O)c2ccc(-c3cccc(F)c3)nc2)cc1` [Example 413, N-[4-(Aminosulfonyl)benzyl]-6-(3-fluorophenyl)nicotinamide]: the concentration for half-maximal inhibition (IC50) came to 92.9 nM. For `CCOC(=O)CC(NC(=O)c1ccc(-c2cccc(F)c2)nc1)c1ccccc1` (stereo not shown) [Example 406, Ethyl 3-({[6-(3-fluorophenyl)pyridin-3-yl]carbonyl}amino)-3-phenylpropanoate] the value was 101 nM; for `NS(=O)(=O)c1ccc(CNC(=O)c2ccc(-c3ccc(F)cc3)nc2)cc1` [Example 460, N-[4-(Aminosulfonyl)benzyl]-6-(4-fluorophenyl) nicotinamide], not below 1000 nM; for `O=C(NCc1ccccc1)c1ccc(-c2ccccc2)nc1` [Example 347, N-Benzyl-6-phenylnicotinamide], 4.3 nM. For `CCOC(=O)C(CNC(=O)c1ccc(-c2cccc(F)c2)nc1)C1CCCC1` (stereo not shown) [Example 155, Ethyl 2-cyclopentyl-3-({[6-(3-fluorophenyl)pyridin-3-yl]carbonyl}amino)propanoate] the value was 5.9 nM.

As for `COc1cccc(-c2ccc(C(=O)NCC3C(=O)Nc4ccccc43)cn2)c1` (stereo not shown) [Example 313, 6-(3-Methoxyphenyl)-N-[(2-oxo-2,3-dihydro-1H-indol-3-yl)methyl]nicotinamide], the half-maximal inhibitory concentration (IC50) stood at 7.62 nM. For `COCCn1cnnc1CNC(=O)c1ccc(-c2cccc(F)c2)nc1` [Example 23, 6-(3-Fluorophenyl)-N-{[4-(2-methoxyethyl)-4H-1,2,4-triazol-3-yl]methyl}nicotinamide] the value was 106 nM.
